Experiments:
COS-7 cells [1] = assay: FITC-oligonucleotide uptake assay (nuclear fluorescence score); assay type: cell-based, African green monkey; design: key: 0: No nuclear fluorescence; 1: up to 20% fluorescent nuclei; 2: up to 40% fluorescent nuclei; 3: up to 60% fluorescent nuclei; 4: up to 80% fluorescent nuclei; 5: up to 100% fluorescent nuclei; conditions: COS7, lipid:oligomer 9:1 or 6:1 by weight, 4-6 h
SNB-19 cells [2] = assay: as above; assay type: cell-based, human; design: key: 0: No nuclear fluorescence; 1: up to 20% fluorescent nuclei; 2: up to 40% fluorescent nuclei; 3: up to 60% fluorescent nuclei; 4: up to 80% fluorescent nuclei; 5: up to 100% fluorescent nuclei; conditions: SNB19, lipid:oligomer 9:1 or 6:1 by weight, 4-6 h
RD cells [3] = assay: as above; assay type: cell-based, human; design: key: 0: No nuclear fluorescence; 1: up to 20% fluorescent nuclei; 2: up to 40% fluorescent nuclei; 3: up to 60% fluorescent nuclei; 4: up to 80% fluorescent nuclei; 5: up to 100% fluorescent nuclei; conditions: lipid:oligomer 9:1 or 6:1 by weight, 4-6 h
C8161 cells [4] = assay: as above; assay type: cell-based, human; design: key: 0: No nuclear fluorescence; 1: up to 20% fluorescent nuclei; 2: up to 40% fluorescent nuclei; 3: up to 60% fluorescent nuclei; 4: up to 80% fluorescent nuclei; 5: up to 100% fluorescent nuclei; conditions: lipid:oligomer 9:1 or 6:1 by weight, 4-6 h
COS-7 cells [5] = assay: Transient transfection of CAT plasmid pG1035 with cationic lipids, CAT activity in lysate; assay type: cell-based, African green monkey; conditions: for Mean (transient transfection efficiency; CAT activity normalized to total protein): CAT plasmid pG1035 2 μg/mL, lipid 18 μg/mL (9 to 1 lipid to DNA), triplicate; for REL (transient transfection efficiency relative to best lipid in the cell line): CAT plasmid pG1035, 9 to 1 lipid to DNA
Protocol: (§1) Cell lines were plated at 1.5×10^5 cells/well in a 12 well plate format on the day before tranfection. […] This small quantity of ethanol was confirmed to have no adverse effect on any of the cell lines. […] Cell lysates were prepared by rinsing twice in PBS and then were treated with 0.5 mL of 1× Reporter Lysis Buffer (Promega, Madison, Wis.). The lysed cells were pipetted into 1.5 mL tubes and frozen in CO2/EtOH once and thawed. The crude lysate was then clarified by microcentrifugation at 14,000 rpm for 10 minutes to pellet cell debris. The clear supernatant was recovered and assayed directly or stored at -20° C. for assay later. The cell lysates were then assayed for CAT activity and the total protein concentration was determined as described below in Example 7. The CAT activity was normalized to total protein and plotted as shown. This assay was performed generally as follows. First, the following reaction mixture was prepared for each sample: […] Louis, Mo.), 4 mL ^14C-chloramphenicol, 50 nCi/mL (Dupont, Boston, Mass.), and 5 mL mg/mL n-butyryl coenzyme A (Pharmacia, Piscataway, N.J.). […] The original stock CAT was at 7000 Units/mL. […] Approximately […] of reaction mixture was then added to each sample tube, which was then typically incubated for approximately 1 hour in a 37° C. oven. The reaction was terminated by adding […] pristane:mixed xylenes (2:1) (Sigma, St. Louis, Mo.) to each tube. The tubes were then vortexed for 2 minutes and spun for 5 minutes. Approximately […] of the upper phase was transferred to a scintillation vial with 5 mL Scintiverse (Fisher, Pittsburgh, Pa.). The sample was then counted in a scintillation counter (Packard). The plasmid pG1035 was used for transient transfections of COS-7 (ATCC # CRL-1651), SNB-19, C8161 and RD (ATCC # CCL-136) cells. pG1035 consists of a modified CAT (choramphenicol acetyl transferase) gene (named […]) inserted into the eukaryotic vector pRc/CMV (Invitrogen, San Diego, Calif.). […] created by inserting an artificial intron into the wild type CAT gene sequence in a plasmid named pG1036 (also based on pRc/CMV) using the polymerase chain reaction. […] Concentration curve standards were prepared using 6 μL of […] BSA stock solutions and 300 mL of the Coomassie reagent. The assay samples were allowed to sit for approximately 30 minutes before reading the optical absorbance at 570 nm in a microplate reader (Molecular Probes). The cells were assayed for CAT protein as described above.

C8161 cells [6] = assay: as above; assay type: cell-based, human; conditions: for Mean (transient transfection efficiency; CAT activity normalized to total protein): CAT plasmid pG1035 2 μg/mL, lipid 18 μg/mL (9 to 1 lipid to DNA), triplicate; for REL (transient transfection efficiency relative to best lipid in the cell line): CAT plasmid pG1035, 9 to 1 lipid to DNA
Protocol: as §1

SNB-19 cells [7] = assay: as above; assay type: cell-based, human; conditions: for Mean (transient transfection efficiency; CAT activity normalized to total protein): CAT plasmid pG1035 2 μg/mL, lipid 18 μg/mL (9 to 1 lipid to DNA), triplicate; for REL (transient transfection efficiency relative to best lipid in the cell line): CAT plasmid pG1035, 9 to 1 lipid to DNA
Protocol: as §1

RD cells [8] = assay: as above; assay type: cell-based, human; conditions: for Mean (transient transfection efficiency; CAT activity normalized to total protein): CAT plasmid pG1035 2 μg/mL, lipid 18 μg/mL (9 to 1 lipid to DNA), triplicate; for REL (transient transfection efficiency relative to best lipid in the cell line): CAT plasmid pG1035, 9 to 1 lipid to DNA
Protocol: as §1

[9] = FITC oligomer 3498-PS (phosphorothioate) 0.25 micromolar
[10] = FITC oligomer 3498 Chimera 0.25 micromolar
[11] = FITC oligomer 3793-2 alternating (methylphosphonate/diester, 2'-O-methyl) 0.25 micromolar

| Structure (SMILES) | Nuclear delivery of oligonucleotide (uptake score) (COS-7 cells [1]; [9]) | Nuclear delivery of oligonucleotide (uptake score) (COS-7 cells [1]; [10]) | Nuclear delivery of oligonucleotide (uptake score) (COS-7 cells [1]; [11]) | Nuclear delivery of oligonucleotide (uptake score) (SNB-19 cells [2]; [9]) | Nuclear delivery of oligonucleotide (uptake score) (SNB-19 cells [2]; [10]) | Nuclear delivery of oligonucleotide (uptake score) (SNB-19 cells [2]; [11]) | Nuclear delivery of oligonucleotide (uptake score) (RD cells [3]; [9]) | Nuclear delivery of oligonucleotide (uptake score) (RD cells [3]; [10]) | Nuclear delivery of oligonucleotide (uptake score) (RD cells [3]; [11]) | Nuclear delivery of oligonucleotide (uptake score) (C8161 cells [4]; [9]) | Nuclear delivery of oligonucleotide (uptake score) (C8161 cells [4]; [10]) | Nuclear delivery of oligonucleotide (uptake score) (C8161 cells [4]; [11]) | Mean (transient transfection efficiency; CAT activity normalized to total protein) (COS-7 cells [5]) | REL (transient transfection efficiency relative to best lipid in the cell line) (COS-7 cells [5]) | Mean (transient transfection efficiency; CAT activity normalized to total protein) (C8161 cells [6]) | REL (transient transfection efficiency relative to best lipid in the cell line) (C8161 cells [6]) | Mean (transient transfection efficiency; CAT activity normalized to total protein) (SNB-19 cells [7]) | REL (transient transfection efficiency relative to best lipid in the cell line) (SNB-19 cells [7]) | Mean (transient transfection efficiency; CAT activity normalized to total protein) (RD cells [8]) | REL (transient transfection efficiency relative to best lipid in the cell line) (RD cells [8]) |
| --- | --- | --- | --- | --- | --- | --- | --- | --- | --- | --- | --- | --- | --- | --- | --- | --- | --- | --- | --- | --- |
| CCCCCCCCCCCCCCCCCC(CCCCCCCCCCCCCCCCC)NC(=O)CNC(=O)CNC(=O)[C@H](CCCNCCCN)NCCCN.O=C(O)C(F)(F)F.O=C(O)C(F)(F)F.O=C(O)C(F)(F)F.O=C(O)C(F)(F)F [Compound 1-10, N^2,N^5-Bis(3-aminopropyl)-L-ornithylglycyl-N-(1-heptadecyloctadecyl)glycinamide, Tetrahydrotrifluoroacetate] | 4 (up to 80% fluorescent nuclei) | 3 (up to 60% fluorescent nuclei) | 0 | 4 (up to 80% fluorescent nuclei) | 4 (up to 80% fluorescent nuclei) | 0 | 5 (up to 100% fluorescent nuclei) | 4 (up to 80% fluorescent nuclei) | 0 | 5 (up to 100% fluorescent nuclei) | 3 (up to 60% fluorescent nuclei) | 0 | 148040 | 0.87 | 159578 | 0.8 | 166179 | 0.88 | 124232 | 0.7 |
| CCCCCCCCCCCCCCCCCCN(CCCCCCCCCCCCCCCCCC)C(=O)CC[C@H](NC(=O)[C@H](CCCNCCCN)NCCCN)C(=O)O.Cl.Cl.Cl.Cl [Compound 2-5, N^2-[N^2,N^5-Bis(3-aminopropyl)-L-ornithyl]-N,N-dioctadecyl-L-glutamine, tetrahydrochloride] | 2 (up to 40% fluorescent nuclei) | 2 (up to 40% fluorescent nuclei) | 1 (up to 20% fluorescent nuclei) | 3 (up to 60% fluorescent nuclei) | 3 (up to 60% fluorescent nuclei) | 3 (up to 60% fluorescent nuclei) | 3 (up to 60% fluorescent nuclei) | 4 (up to 80% fluorescent nuclei) | 4 (up to 80% fluorescent nuclei) | 3 (up to 60% fluorescent nuclei) | 4 (up to 80% fluorescent nuclei) | 3 (up to 60% fluorescent nuclei) | 55598 | 0.33 | 137710 | 0.69 | 103280 | 0.55 | 73921 | 0.41 |

Source: US6638529B2, “Amide-based cationic lipids” (Genta Incorporated, priority 1995, dated 2003)
